From patent US20070160725A1, “Use of extracts and compounds of allium-genus plants as preservatives in the food and agri-food industries” (MOUSALA, S., L., priority 2004, published 2007)

Columns and labels:
[1] = system: Bacillus cereus, CECT 1178; test: agar diffusion, inhibition halo; format: cell-based
Protocol: (§1) In order to evaluate the antimicrobial activity the agar diffusion technique with cellulose discs of 6 mm in diameter impregnated with the different active ingredient testing doses was used.
(§2) Antibacterial capacity was assessed against suspensions of 10^6 cells/ml, prepared from pure young cultures of each one of the strains to be tested. The culture medium used was Müller-Hinton medium (Merck).
(§3) After incubating the culture dishes inoculated with the different organisms at the corresponding temperatures, the microbial inhibition halos that appeared were measured, and said measurement includes the 6 mm diameter of the cellulose discs.

[2] = system: Bacillus megaterium, ATCC 33085; test: agar diffusion, inhibition halo; format: cell-based
Protocol: as §1, §2, §3

[3] = system: Escherichia coli, CECT 515; test: agar diffusion, inhibition halo; format: cell-based
Protocol: as §1, §2, §3

[4] = system: Listeria monocytogenes, ATCC 15313; test: agar diffusion, inhibition halo; format: cell-based
Protocol: as §1, §2, §3

[5] = system: Micrococcus luteus, isolated from a spiced sausage; test: agar diffusion, inhibition halo; format: cell-based
Protocol: as §1, §2, §3

Salmonella = test: microbiological quality of treated hamburgers and fresh sausage: Salmonella study
Protocol: The tests were conducted on meat products such as hamburgers and fresh sausage at different doses, with and without the usual preservatives (sulfites).
Each sample is prepared in quintuplicate and microbiological quality control over time is conducted, a triplicate of each sample being performed.
The systematic testing used consisted of three steps: • a) Pre-enrichment in non-selective liquid medium. • b) Enrichment in selective liquid medium. • c) Differential isolation on selective solid means. a) Non-Selective Pre-Enrichment
The medium of choice is buffered peptone water.
25 g of the product to be analyzed are aseptically weighed and diluted in 225 mL of buffered peptone water to obtain a 1:10 dilution. It is mixed well and taken to be incubated at 37° C. for 16-20 hours.
The pre-enrichment culture is stirred and 10 mL thereof are taken with a sterile pipette, seeding it onto 100 mL of selenite-cysteine broth (Merck), incubating it at 37° C. for 18-24 hours.
From the culture obtained in the selective liquid medium, selenite-cysteine broth, seeding is performed on the second dish, in duplicate and without overloading the loop, on xylose lysine deoxycholate (XLD, Merck) agar, Rambach agar (Merck), and SS agar (Merck).
All the seeded dishes are incubated in an oven at 37° C. for 24-48 hours.
The test is positive when typical colonies are detected in at least two of the four mediums, which are confirmed with supplementary biochemical tests.
Two different raw meat products (sausages and hamburgers) treated with different allicin doses are prepared. • The used testing doses were: 25, 50 and 100 ppm.
Five samples of each product (hamburger and sausage) are prepared, each one of them being analyzed in triplicate.
The microbiological parameters analyzed were as follows: • Total mesophilic aerobes • Coliforms • Escherichia coli • Salmonella (presence/absence in 25 g) • Said parameters were analyzed at different times: • 0 days • 4 days • 7 days • The sample references resulted as follows: […]

## C=CCS[S+]([O-])CC=C (stereo not shown) [Allicin, allyl allylthiosulfinate]
[1]; 25 ppm
  inhibition halo diameter: 22 mm
[1]; 50 ppm
  inhibition halo diameter: 29 mm
[1]; 100 ppm
  inhibition halo diameter: 35 mm
[2]; 25 ppm
  inhibition halo diameter: 23 mm
[2]; 50 ppm
  inhibition halo diameter: 27 mm
[2]; 100 ppm
  inhibition halo diameter: 34 mm
[3]; 25 ppm
  inhibition halo diameter: 14 mm
[3]; 50 ppm
  inhibition halo diameter: 17 mm
[3]; 100 ppm
  inhibition halo diameter: 21 mm
[4]; 25 ppm
  inhibition halo diameter: 18 mm
[4]; 50 ppm
  inhibition halo diameter: 24 mm
[4]; 100 ppm
  inhibition halo diameter: 30 mm
[5]; 25 ppm
  inhibition halo diameter: 19 mm
[5]; 50 ppm
  inhibition halo diameter: 25 mm
[5]; 100 ppm
  inhibition halo diameter: 32 mm
Salmonella; allicin doses of 50 and 100 ppm
  Salmonella growth: able to inhibit Salmonella growth
Salmonella; hamburger, 25 ppm of allicin (H-1), t = 0 days
  Salmonella (in 25 g): presence
Salmonella; hamburger, 25 ppm of allicin (H-1), t = 4 days
  Salmonella (in 25 g): presence
Salmonella; hamburger, 50 ppm of allicin (H-2), t = 0 days
  Salmonella (in 25 g): presence
Salmonella; hamburger, 50 ppm of allicin (H-2), t = 4 days
  Salmonella (in 25 g): presence
Salmonella; hamburger, 100 ppm of allicin (H-3), t = 0 days
  Salmonella (in 25 g): presence
Salmonella; hamburger, 100 ppm of allicin (H-3), t = 4 days
  Salmonella (in 25 g): presence
Salmonella; sausage, 25 ppm of allicin (S-1), t = 0 days
  Salmonella (in 25 g): absence
Salmonella; sausage, 25 ppm of allicin (S-1), t = 4 days
  Salmonella (in 25 g): presence
Salmonella; sausage, 50 ppm of allicin (S-2), t = 0 days
  Salmonella (in 25 g): absence
Salmonella; sausage, 50 ppm of allicin (S-2), t = 4 days
  Salmonella (in 25 g): presence
Salmonella; sausage, 100 ppm of allicin (S-3), t = 0 days
  Salmonella (in 25 g): absence
Salmonella; sausage, 100 ppm of allicin (S-3), t = 4 days
  Salmonella (in 25 g): presence
